{"source": "PubChem BioAssay AID280", "about": "(DTP/NCI, 2004)", "test_system": "nude mice, LOX melanoma ip, survival T/C", "assay": "NCI In Vivo Anticancer Drug Screen. Data for tumor model Human Amelanotic Melanoma (LOX) (intraperitoneal) in NU/NU BALB/C (nude) mice", "conditions": "endpoint: median survival time, schedule: Q04DX003 (ip), higher = longer survival", "experimental": "The antitumor activity of compounds was measured in mice bearing transplantable tumors. Survival or tumor size were measured and the results are expressed as the measurement made in the treated group (T) divided by the measurement made in the vehicle treated control group (C). The tumor model used in this assay is Human Amelanotic Melanoma (LOX) (intraperitoneal) in NU/NU BALB/C (nude) mice", "key": {"[1]": {"conditions": "dose: 75.0 mg/kg/injection, vehicle: Klucel (hydroxypropylcellulose) (HPC)"}, "[2]": {"conditions": "dose: 150.0 mg/kg/injection, vehicle: Klucel (hydroxypropylcellulose) (HPC)"}, "[3]": {"conditions": "dose: 50.0 mg/kg/injection, vehicle: saline"}, "[4]": {"conditions": "dose: 100.0 mg/kg/injection, vehicle: saline"}}, "note": "Values joined by “and” are separate entries in the source; they are usually repeats but may differ in a detail not shown here. Equal values may be shown once. Toxic doses and inconclusive results are not listed.", "data": [{"smiles": "CCCCCNc1ncnc2c(C)[nH]nc12", "values": [{"measurement": "T/C", "setting": "dose: 18.75 mg/kg/injection, vehicle: Klucel (hydroxypropylcellulose) (HPC)", "value": "103 % of control"}, {"measurement": "T/C", "setting": "dose: 37.5 mg/kg/injection, vehicle: Klucel (hydroxypropylcellulose) (HPC)", "value": "94 % of control"}, {"measurement": "T/C", "setting": "[1]", "value": "98 % of control"}, {"measurement": "T/C", "setting": "[2]", "value": "94 % of control"}]}, {"smiles": "S=C1CCCCN1", "values": [{"measurement": "T/C", "setting": "dose: 37.5 mg/kg/injection, vehicle: distilled water + Tween-80 + alcohol", "value": "98 % of control"}, {"measurement": "T/C", "setting": "dose: 75.0 mg/kg/injection, vehicle: distilled water + Tween-80 + alcohol", "value": "100 % of control"}, {"measurement": "T/C", "setting": "dose: 150.0 mg/kg/injection, vehicle: distilled water + Tween-80 + alcohol", "value": "111 % of control"}]}, {"smiles": "CCC(=O)[O][Bi]([c]1ccccc1)[c]1ccccc1", "values": [{"measurement": "T/C", "setting": "dose: 3.13 mg/kg/injection, vehicle: Klucel (hydroxypropylcellulose) (HPC)", "value": "93 % of control"}, {"measurement": "T/C", "setting": "dose: 6.25 mg/kg/injection, vehicle: Klucel (hydroxypropylcellulose) (HPC)", "value": "88 % of control"}, {"measurement": "T/C", "setting": "dose: 12.5 mg/kg/injection, vehicle: Klucel (hydroxypropylcellulose) (HPC)", "value": "110 % of control"}, {"measurement": "T/C", "setting": "dose: 25.0 mg/kg/injection, vehicle: Klucel (hydroxypropylcellulose) (HPC)", "value": "100 % of control"}]}, {"smiles": "O=C1c2cccc(NCCCNCCO)c2C(=O)c2cccc(NCCCNCCO)c21", "values": [{"measurement": "T/C", "setting": "dose: 4.69 mg/kg/injection, vehicle: saline", "value": "116 % of control"}, {"measurement": "T/C", "setting": "dose: 6.75 mg/kg/injection, vehicle: acid diluted with saline", "value": "113 % of control and 97 % of control"}, {"measurement": "T/C", "setting": "dose: 9.38 mg/kg/injection, vehicle: saline", "value": "124 % of control"}, {"measurement": "T/C", "setting": "dose: 11.0 mg/kg/injection, vehicle: acid diluted with saline", "value": "117 % of control"}, {"measurement": "T/C", "setting": "dose: 11.25 mg/kg/injection, vehicle: acid diluted with saline", "value": "97 % of control"}, {"measurement": "T/C", "setting": "dose: 18.7 mg/kg/injection, vehicle: acid diluted with saline", "value": "111 % of control"}, {"measurement": "T/C", "setting": "dose: 18.75 mg/kg/injection, vehicle: acid diluted with saline", "value": "106 % of control"}, {"measurement": "T/C", "setting": "dose: 31.25 mg/kg/injection, vehicle: acid diluted with saline", "value": "112 % of control"}, {"measurement": "T/C", "setting": "dose: 37.5 mg/kg/injection, vehicle: saline", "value": "105 % of control"}, {"measurement": "T/C", "setting": "dose: 75.0 mg/kg/injection, vehicle: saline", "value": "86 % of control"}]}, {"smiles": "CN=NN(C)C(=O)NC", "values": [{"measurement": "T/C", "setting": "dose: 25.0 mg/kg/injection, vehicle: saline", "value": "154 % of control"}, {"measurement": "T/C", "setting": "[3]", "value": "188 % of control"}, {"measurement": "T/C", "setting": "[4]", "value": "230 % of control"}]}, {"smiles": "O=C1c2cccc(NCCNCCO)c2C(=O)c2cccc(NCCNCCO)c21", "values": [{"measurement": "T/C", "setting": "dose: 4.69 mg/kg/injection, vehicle: suspension in saline", "value": "122 % of control"}, {"measurement": "T/C", "setting": "dose: 9.38 mg/kg/injection, vehicle: suspension in saline", "value": "120 % of control"}]}, {"smiles": "O=CC(CO)CC(C=O)n1cnc2c(=O)[nH]cnc21", "note": "(stereo not drawn)", "values": [{"measurement": "T/C", "setting": "[3]", "value": "109 % of control"}, {"measurement": "T/C", "setting": "[4]", "value": "102 % of control"}, {"measurement": "T/C", "setting": "dose: 200.0 mg/kg/injection, vehicle: saline", "value": "103 % of control"}, {"measurement": "T/C", "setting": "dose: 400.0 mg/kg/injection, vehicle: saline", "value": "113 % of control"}, {"measurement": "T/C", "setting": "dose: 800.0 mg/kg/injection, vehicle: saline", "value": "100 % of control"}]}, {"smiles": "Cc1nc2c(N)cc(Cl)cc2[nH]1", "values": [{"measurement": "T/C", "setting": "dose: 50.0 mg/kg/injection, vehicle: saline with Tween-80", "value": "114 % of control"}, {"measurement": "T/C", "setting": "dose: 100.0 mg/kg/injection, vehicle: saline with Tween-80", "value": "112 % of control"}, {"measurement": "T/C", "setting": "dose: 200.0 mg/kg/injection, vehicle: saline with Tween-80", "value": "99 % of control"}]}, {"smiles": "CN(C)C(=O)SC1=C(c2c(Cl)cccc2Cl)C(=O)c2ccccc21", "values": [{"measurement": "T/C", "setting": "[1]", "value": "103 % of control and 110 % of control"}, {"measurement": "T/C", "setting": "[2]", "value": "112 % of control and 97 % of control"}, {"measurement": "T/C", "setting": "dose: 300.0 mg/kg/injection, vehicle: Klucel (hydroxypropylcellulose) (HPC)", "value": "109 % of control and 92 % of control"}, {"measurement": "T/C", "setting": "dose: 600.0 mg/kg/injection, vehicle: Klucel (hydroxypropylcellulose) (HPC)", "value": "110 % of control and 123 % of control"}, {"measurement": "T/C", "setting": "dose: 1200.0 mg/kg/injection, vehicle: Klucel (hydroxypropylcellulose) (HPC)", "value": "105 % of control"}]}, {"smiles": "CCOC(=O)C1=C(Nc2ccc(OC)cc2)C(N)=NC1=N", "values": [{"measurement": "T/C", "setting": "dose: 50.0 mg/kg/injection, vehicle: suspension in saline", "value": "107 % of control"}, {"measurement": "T/C", "setting": "dose: 100.0 mg/kg/injection, vehicle: suspension in saline", "value": "107 % of control"}]}, {"smiles": "COc1cc2c(c(OC)c1OC)-c1ccc(SC)c(=O)cc1[C@@H](NC(C)=O)CC2", "values": [{"measurement": "T/C", "setting": "dose: 0.25 mg/kg/injection, vehicle: Klucel (hydroxypropylcellulose) (HPC)", "value": "163 % of control"}, {"measurement": "T/C", "setting": "dose: 0.5 mg/kg/injection, vehicle: Klucel (hydroxypropylcellulose) (HPC)", "value": "172 % of control and 196 % of control"}, {"measurement": "T/C", "setting": "dose: 0.82 mg/kg/injection, vehicle: Klucel (hydroxypropylcellulose) (HPC)", "value": "173 % of control"}, {"measurement": "T/C", "setting": "dose: 1.38 mg/kg/injection, vehicle: Klucel (hydroxypropylcellulose) (HPC)", "value": "193 % of control"}]}, {"smiles": "CCCCCCCC(=O)O[C@H]1[C@H]2[C@@H](CC1(C)C)C(=O)[C@]13O[C@H]1C(=O)[C@]1(CO1)[C@]23C", "values": [{"measurement": "T/C", "setting": "dose: 2.5 mg/kg/injection, vehicle: saline with Tween-80", "value": "115 % of control"}, {"measurement": "T/C", "setting": "dose: 5.0 mg/kg/injection, vehicle: saline with Tween-80", "value": "92 % of control"}, {"measurement": "T/C", "setting": "dose: 10.0 mg/kg/injection, vehicle: saline with Tween-80", "value": "90 % of control"}, {"measurement": "T/C", "setting": "dose: 20.0 mg/kg/injection, vehicle: saline with Tween-80", "value": "103 % of control"}, {"measurement": "T/C", "setting": "dose: 40.0 mg/kg/injection, vehicle: saline with Tween-80", "value": "92 % of control"}]}, {"smiles": "N=C1CCCS1", "values": [{"measurement": "T/C", "setting": "dose: 10.0 mg/kg/injection, vehicle: saline", "value": "114 % of control"}, {"measurement": "T/C", "setting": "dose: 20.0 mg/kg/injection, vehicle: saline", "value": "96 % of control"}, {"measurement": "T/C", "setting": "dose: 40.0 mg/kg/injection, vehicle: saline", "value": "102 % of control"}, {"measurement": "T/C", "setting": "dose: 80.0 mg/kg/injection, vehicle: saline", "value": "113 % of control"}, {"measurement": "T/C", "setting": "dose: 160.0 mg/kg/injection, vehicle: saline", "value": "116 % of control"}]}, {"smiles": "NCCCC(N)(C(=O)O)C(F)F", "note": "(stereo not drawn)", "values": [{"measurement": "T/C", "setting": "dose: 75.0 mg/kg/injection, vehicle: distilled water + alcohol", "value": "112 % of control"}, {"measurement": "T/C", "setting": "dose: 150.0 mg/kg/injection, vehicle: distilled water + alcohol", "value": "111 % of control"}, {"measurement": "T/C", "setting": "dose: 300.0 mg/kg/injection, vehicle: distilled water + alcohol", "value": "101 % of control"}, {"measurement": "T/C", "setting": "dose: 600.0 mg/kg/injection, vehicle: distilled water + alcohol", "value": "97 % of control"}, {"measurement": "T/C", "setting": "dose: 1200.0 mg/kg/injection, vehicle: distilled water + alcohol", "value": "106 % of control"}]}, {"smiles": "O=C(O)Cc1cccc(=O)c(O)c1C(=O)O", "values": [{"measurement": "T/C", "setting": "dose: 75.0 mg/kg/injection, vehicle: saline with Tween-80", "value": "97 % of control"}, {"measurement": "T/C", "setting": "dose: 150.0 mg/kg/injection, vehicle: saline with Tween-80", "value": "94 % of control"}]}, {"smiles": "CC1=NN(c2cccc(S(=O)(=O)O)c2)C(=O)C1N=Nc1cc(Cl)cc(S(=O)(=O)O)c1O.CC1=NN(c2cccc(S(=O)(=O)O)c2)C(=O)C1N=Nc1cc(Cl)cc(S(=O)(=O)O)c1O.[Cr]", "note": "(stereo not drawn)", "values": [{"measurement": "T/C", "setting": "dose: 75.0 mg/kg/injection, vehicle: suspension in saline", "value": "97 % of control"}, {"measurement": "T/C", "setting": "dose: 150.0 mg/kg/injection, vehicle: suspension in saline", "value": "94 % of control"}, {"measurement": "T/C", "setting": "dose: 300.0 mg/kg/injection, vehicle: suspension in saline", "value": "87 % of control"}]}, {"smiles": "Cc1c2ccccc2c(C)c2c1cc(C(=O)O)c1ccccc12", "values": [{"measurement": "T/C", "setting": "dose: 12.5 mg/kg/injection, vehicle: sodium bicarbonate", "value": "115 % of control"}, {"measurement": "T/C", "setting": "dose: 25.0 mg/kg/injection, vehicle: sodium bicarbonate", "value": "118 % of control"}, {"measurement": "T/C", "setting": "dose: 200.0 mg/kg/injection, vehicle: sodium bicarbonate", "value": "167 % of control"}]}]}
